Results published in patent US11382892B2, “Method for administration” (Hoffmann-La Roche Inc., priority 2012, dated 2022).

What was measured:
[1] = test system: solid tumors; assay: On-going Phase I studies in solid tumors; assay type: in vivo, human
Source text: Thus, a 3-5 daily treatment schedule is expected to provide the best benefit ratio taking into consideration efficacy and toxicity.

[2] = Toxicity summary (body weight, mortality) in MOLM-13 xenograft study; assay type: in vivo; conditions: MOLM-13 study
Source text: In the examples below, weight loss was graphically represented as percent change in mean group body weight, using the formula: ((W−W0)/W0)×100, where ‘W’ represents mean body weight of the treated group at a particular day, and ‘W0’ represents mean body weight of the same treated group at initiation of treatment.
(§1) Female SCID:beige mice (10/group), obtained from Charles River Laboratories (Wilmington, Del.) were utilized when they were approximately 8-10 weeks of age and weighed 21-23 g. The health of the mice was assessed daily by gross observation and analyses of blood samples taken from sentinel animals housed on shared shelf racks. All animals were allowed to acclimate and recover from any shipping-related stress for a minimum of 72 hours prior to experimental use. Autoclaved water and irradiated food (5058-ms Pico Lab mouse chow, Purina Mills, Richmond, Ind.) were provided ad libitum, and the animals were maintained on a 12 hour light and dark cycle. Cages, bedding and water bottles were autoclaved before use and changed weekly. All animal experiments were conducted in accordance with the Guide for the Care and Use of Laboratory Animals, local regulations, and protocols approved by the Roche Animal Care and Use Committee in an AAALAC accredited facility.
Treatment duration was initiated on day 3 and was for 2 weeks. Animal body weights were measured three times per week and animals were monitored for clinical signs daily.

[3] = test system: human osteosarcoma cancer xenograft model SJSA1; assay: Antitumor activity (tumor volume, TGI, regression) in SJSA1 xenograft; assay type: in vivo, mice; conditions: for Full Regression / Partial Regression: 10 animals per group
Source text: Efficacy data was graphically represented as the mean tumor volume*standard error of the mean (SEM). In addition, tumor volumes of treated groups were presented as percentages of tumor volumes of the control groups (% T/C), using the formula: 100×((T−T0)/(C−C0)), where T represented mean tumor volume of a treated group on a specific day during the experiment, T0 represented mean tumor volume of the same […] group on the first day of treatment; C represented mean tumor volume of a control group on the specific day during the experiment, and C0 represented mean tumor volume of the same […] group on the first day of treatment.
Tumor volume (in cubic millimeters) was calculated using the ellipsoid formula: (D×(d^2))/2, where “D” represents the large diameter of the tumor and “d” represents the small diameter. In some cases, tumor regression and/or percent change in tumor volume was calculated using the formula: ((T−T0)/T0)×100, where ‘T’ represents mean tumor volume of the treated group at a particular day, and ‘T0’ represents mean tumor volume of the same treated group at initiation of treatment.
All dose levels are reported as the actual dosage of Compound A rather than including drug plus polymer.
as §1, with “athymic Crl:NU-Foxn1nu” for “SCID:beige”, “10-12” for “8-10”, “23-25” for “21-23”
SJSA cells (ATCC) were maintained in RPMI 1640+10% (v/v) heat-inactivated FBS+i % (v/v) […] L-glutamine. Each mouse received 5×10^6 cells in a 1:1 mixture of phosphate buffered saline and Matrigel in a total volume of 0.2 ml. Cells were implanted subcutaneously in the right flank using a 1 cc syringe and a 26 gauge needle.
Treatment duration was 2-4 weeks. Dates of tumor implant, treatment initiation (study start date), and termination of treatment (study end date) can be found in Table 6 below. The starting tumor volume for this study was about 220 mm^3. Tumor volumes and animal body weights were measured three times per week and animals were monitored for clinical signs daily.

[4] = 100 mg/kg QD po 2 on/12 off x 2
[5] = 200 mg/kg (two 100 mg/kg doses 8 hr apart) 1x/wk po

COc1cc(C(=O)O)ccc1NC(=O)[C@@H]1N[C@@H](CC(C)(C)C)[C@](C#N)(c2ccc(Cl)cc2F)[C@H]1c1cccc(Cl)c1F [Compound A, 4-{[(2R,3S,4R,5S)-4-(4-Chloro-2-fluoro-phenyl)-3-(3-chloro-2-fluoro-phenyl)-4-cyano-5-(2,2-dimethyl-propyl)-pyrrolidine-2-carbonyl]-amino}-3-methoxy-benzoic acid]
toxicity of longer schedules ([1]; longer schedules): delayed thrombocytopenia | continuous exposure after which maximal apoptosis occurs ([1]; solid tumors): about 48 hours | treatment related toxicity ([2]; 80 mg/kg qd × 5 po): absence of treatment related toxicity | # of animals ≥20% BWL ([2]; 80 mg/kg qdx5 po): 0 | % Change in Body Weight at end of Study Day 17 ([2]; 80 mg/kg qdx5 po): −3.2% | Maximum % Weight gain ([2]; 80 mg/kg qdx5 po): −3.2% | Maximum % Weight loss ([2]; 80 mg/kg qdx5 po): −5.5% | Mortality (reason) ([2]; 80 mg/kg qdx5 po, reason: dosing injury): 1 (dosing | % Inhibition end of study Day: 32 ([3]; 7.5 mg/kg QD po): 66% | % T/C End of Study Day: 32 ([3]; 7.5 mg/kg QD po): 34% | Mean Tumor Volume (mm3) End Study Day: 32 ([3]; 7.5 mg/kg QD po): 18.01 mm3 | Full Regression ([3]; 7.5 mg/kg QD po): 0 | Partial Regression ([3]; 7.5 mg/kg QD po): 0 | % Inhibition end of study Day: 32 ([3]; 15 mg/kg QD po): 79% | % T/C End of Study Day: 32 ([3]; 15 mg/kg QD po): 21% | Mean Tumor Volume (mm3) End Study Day: 32 ([3]; 15 mg/kg QD po): 16.42 mm3 | Full Regression ([3]; 15 mg/kg QD po): 0 | Partial Regression ([3]; 15 mg/kg QD po): 0 | % Inhibition end of study Day: 32 ([3]; 20 mg/kg QD po 20 on/8 off): 98% | % T/C End of Study Day: 32 ([3]; 20 mg/kg QD po 20 on/8 off): 2% | Mean Tumor Volume (mm3) End Study Day: 32 ([3]; 20 mg/kg QD po 20 on/8 off): 315.19 mm3 | Full Regression ([3]; 20 mg/kg QD po 20 on/8 off): 0 | Partial Regression ([3]; 20 mg/kg QD po 20 on/8 off): 5 | % Inhibition end of study Day: 32 ([3]; 30 mg/kg QD po): regression | % T/C End of Study Day: 32 ([3]; 30 mg/kg QD po): −1% | Average % Regression per Group ([3]; 30 mg/kg QD po): 13% | Mean Tumor Volume (mm3) End Study Day: 32 ([3]; 30 mg/kg QD po): 19.35 mm3 | Full Regression ([3]; 30 mg/kg QD po): 0 | Partial Regression ([3]; 30 mg/kg QD po): 7 | % Inhibition end of study Day: 32 ([3]; 50 mg/kg 1x/wk po): 57% | % T/C End of Study Day: 32 ([3]; 50 mg/kg 1x/wk po): 43% | Mean Tumor Volume (mm3) End Study Day: 32 ([3]; 50 mg/kg 1x/wk po): 22.66 mm3 | Full Regression ([3]; 50 mg/kg 1x/wk po): 0 | Partial Regression ([3]; 50 mg/kg 1x/wk po): 0 | % Inhibition end of study Day: 32 ([3]; 50 mg/kg QD po 2 on/5 off x 4): 99% | % T/C End of Study Day: 32 ([3]; 50 mg/kg QD po 2 on/5 off x 4): 1% | Mean Tumor Volume (mm3) End Study Day: 32 ([3]; 50 mg/kg QD po 2 on/5 off x 4): 257.29 mm3 | Full Regression ([3]; 50 mg/kg QD po 2 on/5 off x 4): 0 | Partial Regression ([3]; 50 mg/kg QD po 2 on/5 off x 4): 3 | % Inhibition end of study Day: 32 ([3]; 50 mg/kg QD po 4 on/10 off x 2): 99% | % T/C End of Study Day: 32 ([3]; 50 mg/kg QD po 4 on/10 off x 2): 1% | Mean Tumor Volume (mm3) End Study Day: 32 ([3]; 50 mg/kg QD po 4 on/10 off x 2): 244.70 mm3 | Full Regression ([3]; 50 mg/kg QD po 4 on/10 off x 2): 0 | Partial Regression ([3]; 50 mg/kg QD po 4 on/10 off x 2): 6 | % Inhibition end of study Day: 32 ([3]; 80 mg/kg QD po 5 on/23 off): regression | % T/C End of Study Day: 32 ([3]; 80 mg/kg QD po 5 on/23 off): −2% | Average % Regression per Group ([3]; 80 mg/kg QD po 5 on/23 off): 35% | Mean Tumor Volume (mm3) End Study Day: 32 ([3]; 80 mg/kg QD po 5 on/23 off): 128.05 mm3 | Full Regression ([3]; 80 mg/kg QD po 5 on/23 off): 2 | Partial Regression ([3]; 80 mg/kg QD po 5 on/23 off): 6 | % Inhibition end of study Day: 32 ([3]; 100 mg/kg 1x/wk po): 94% | % T/C End of Study Day: 32 ([3]; 100 mg/kg 1x/wk po): 6% | Mean Tumor Volume (mm3) End Study Day: 32 ([3]; 100 mg/kg 1x/wk po): 474.73 mm3 | Full Regression ([3]; 100 mg/kg 1x/wk po): 0 | Partial Regression ([3]; 100 mg/kg 1x/wk po): 1 | % Inhibition end of study Day: 32 ([3]; 100 mg/kg QD po 2 on/5 off x 4): regression | % T/C End of Study Day: 32 ([3]; 100 mg/kg QD po 2 on/5 off x 4): −2% | Average % Regression per Group ([3]; 100 mg/kg QD po 2 on/5 off x 4): 47% | Mean Tumor Volume (mm3) End Study Day: 32 ([3]; 100 mg/kg QD po 2 on/5 off x 4): 25.68 mm3 | Full Regression ([3]; 100 mg/kg QD po 2 on/5 off x 4): 0 | Partial Regression ([3]; 100 mg/kg QD po 2 on/5 off x 4): 9 | % Inhibition end of study Day: 32 [3, 4]: regression | % T/C End of Study Day: 32 [3, 4]: 0% | Average % Regression per Group [3, 4]: 11% | Mean Tumor Volume (mm3) End Study Day: 32 [3, 4]: 179.88 mm3 | Full Regression [3, 4]: 0 | Partial Regression [3, 4]: 7 | % Inhibition end of study Day: 32 [3, 5]: regression | % T/C End of Study Day: 32 [3, 5]: −1% | Average % Regression per Group [3, 5]: 29% | Mean Tumor Volume (mm3) End Study Day: 32 [3, 5]: 158.95 mm3 | Full Regression [3, 5]: 0 | Partial Regression [3, 5]: 7 | growth inhibitory activity (FIG. 1) ([3]; 5 day on/23 day off treatment schedule): good growth inhibitory activity
